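Briefly, cells in 96-well plates were exposed to five compound concentrations for 48 h, and endpoints were estimated by linear interpolation. Definition used: TGI = concentration required for complete inhibition of growth.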
What follows are compounds tested on HT29 colon (assay: inhibition of tumour cell growth, NCI panel, 48 h).

`CC1CC(OP(=O)(OCc2ccccc2)OCc2ccccc2)[C@@H](OCc2ccccc2)C(OCc2ccccc2)C1OCc1ccccc1` (stereo partly specified) and `O=C(/C=C/c1ccccc1)CCC1C(=O)c2ccccc2C1=O` cannot be ordered by TGI: greater than 100 µM for the first, greater than 100 µM for the second.

`COc1cc(OC)c2nc(C)c(CCCl)c(Cl)c2c1` and `CCOC(=O)CCC(NC(=O)Cc1ccc(Nc2nc3cc(F)c(F)cc3nc2C(=O)OCC)cc1)C(=O)OCC` (stereo unspecified) cannot be ordered by TGI: greater than 100 µM for the first, greater than 100 µM for the second.

`C[C@H]1[C@H]2[C@H]3CC[C@@H]4[C@@]5(C)CC[C@H](O)C(C)(C)[C@@H]5CC[C@@]4(C)[C@]3(C)C[C@H](O)[C@@]2(C)C[C@H]2O[C@]21C` and `CC(=O)OC(OC(C)=O)c1ccc2ccc3cccc4ccc1c2c34` are within 1.5-fold of each other in TGI: 30.2 µM for the first, 38.3 µM for the second.

`N#C[C@H](c1ccccn1)c1nc2ccccc2nc1Cl` was tested, and the TGI was greater than 100 µM.

These compounds were tested on HCC-2998 colon (assay: inhibition of tumour cell growth, NCI panel, 48 h).

`CC(=O)Nc1sc(Br)cc1S(=O)(=O)c1ccc(Cl)cc1` and `Fc1ccc2c(c1)nc1n2C(c2c(Cl)cccc2Cl)SC1` (stereo unspecified) are within 1.5-fold of each other in TGI: 44.2 µM for the first, 29.9 µM for the second.

`CC1(C)C(C#N)C1C1=C(N2CCOCC2)[C@]2(C)C(OC(=O)c3ccccc3)CC[C@@H]2C1` (stereo partly specified) and `Cc1c(C)c2c(c(N)c1C#N)C(=O)N(NC(=O)c1ccccc1)C2=O` cannot be ordered by TGI: greater than 100 µM for the first, greater than 100 µM for the second.

`CN(CCSCCN(C)C(=O)OC(C)(C)C)C(=O)OC(C)(C)C` and `CCOC(=O)CCC(NC(=O)Cc1ccc(Nc2nc3cc(F)c(F)cc3nc2C(=O)OCC)cc1)C(=O)OCC` (stereo unspecified) cannot be ordered by TGI: greater than 100 µM for the first, greater than 100 µM for the second.

`N#Cc1n[nH]n(-c2ccc(Br)cc2)c1=O` and `N#C[C@H](c1ccccn1)c1nc2ccccc2nc1Cl` cannot be ordered by TGI: greater than 100 µM for the first, greater than 100 µM for the second.

`CO[C@@]12C[C@@H](C)C3=CCC(C)=C3CC1=C(C)C(=O)O2` and `COc1cc(OC)c2nc(C)c(CCCl)c(Cl)c2c1` cannot be ordered by TGI: greater than 100 µM for the first, greater than 100 µM for the second.

`N=C(N)C1CN(CCc2c[nH]c3ccccc23)C(=O)NC1=O` (stereo unspecified) and `O=C(/C=C/c1ccccc1)CCC1C(=O)c2ccccc2C1=O` cannot be ordered by TGI: greater than 100 µM for the first, greater than 100 µM for the second.

`O=c1[nH]nnc2c1sc1ncccc12` and `O=C1Nc2cccc(Cl)c2/C1=C\c1c(Cl)nc2n1CCS2` cannot be ordered by TGI: greater than 100 µM for the first, greater than 100 µM for the second.

Compared with `CCOC1(OCC)C2C=CC1C(COS(=O)(=O)c1ccc(C)cc1)C2COS(=O)(=O)c1ccc(C)cc1` (stereo unspecified), `CC(=O)OC(OC(C)=O)c1ccc2ccc3cccc4ccc1c2c34` is lower in TGI: greater than 100 µM for the first, 24.5 µM for the second.

Compared with `CC(=O)CCn1c(=S)sc2ccccc21`, `C=CCc1cccc2cc(C(=O)NCc3ccccc3)c(=N)oc12` is lower in TGI: greater than 100 µM for the first, 67.8 µM for the second.

First: CC1CC(OP(=O)(OCc2ccccc2)OCc2ccccc2)[C@@H](OCc2ccccc2)C(OCc2ccccc2)C1OCc1ccccc1 (stereo partly specified)
Second: C[C@H]1[C@H]2[C@H]3CC[C@@H]4[C@@]5(C)CC[C@H](O)C(C)(C)[C@@H]5CC[C@@]4(C)[C@]3(C)C[C@H](O)[C@@]2(C)C[C@H]2O[C@]21C
The TGI of the first is higher: greater than 100 µM for the first, 37.4 µM for the second.

The compounds below were run on HOP-62 NSCLC (assay: inhibition of tumour cell growth, NCI panel, 48 h).

`CC1(C)C(C#N)C1C1=C(N2CCOCC2)[C@]2(C)C(OC(=O)c3ccccc3)CC[C@@H]2C1` (stereo partly specified) and `N=C(N)C1CN(CCc2c[nH]c3ccccc23)C(=O)NC1=O` (stereo unspecified) cannot be ordered by TGI: greater than 100 µM for the first, greater than 100 µM for the second.

`CN(CCSCCN(C)C(=O)OC(C)(C)C)C(=O)OC(C)(C)C` and `CCOC(=O)CCC(NC(=O)Cc1ccc(Nc2nc3cc(F)c(F)cc3nc2C(=O)OCC)cc1)C(=O)OCC` (stereo unspecified) cannot be ordered by TGI: greater than 100 µM for the first, greater than 100 µM for the second.

`N#Cc1n[nH]n(-c2ccc(Br)cc2)c1=O` and `N#C[C@H](c1ccccn1)c1nc2ccccc2nc1Cl` cannot be ordered by TGI: greater than 100 µM for the first, greater than 100 µM for the second.

`O=c1[nH]nnc2c1sc1ncccc12` and `O=C1Nc2cccc(Cl)c2/C1=C\c1c(Cl)nc2n1CCS2` cannot be ordered by TGI: greater than 100 µM for the first, greater than 100 µM for the second.

First: Fc1ccc2c(c1)nc1n2C(c2c(Cl)cccc2Cl)SC1 (stereo unspecified)
Second: C=CCc1cccc2cc(C(=O)NCc3ccccc3)c(=N)oc12
The TGI of the first is lower: 29.2 µM for the first, greater than 100 µM for the second.

`CCOC1(OCC)C2C=CC1C(COS(=O)(=O)c1ccc(C)cc1)C2COS(=O)(=O)c1ccc(C)cc1` (stereo unspecified) and `CC1CC(OP(=O)(OCc2ccccc2)OCc2ccccc2)[C@@H](OCc2ccccc2)C(OCc2ccccc2)C1OCc1ccccc1` (stereo partly specified) cannot be ordered by TGI: greater than 100 µM for the first, greater than 100 µM for the second.

`CC(=O)CCn1c(=S)sc2ccccc21` and `COc1cc(OC)c2nc(C)c(CCCl)c(Cl)c2c1` cannot be ordered by TGI: greater than 100 µM for the first, greater than 100 µM for the second.

In the case of `C[C@H]1[C@H]2[C@H]3CC[C@@H]4[C@@]5(C)CC[C@H](O)C(C)(C)[C@@H]5CC[C@@]4(C)[C@]3(C)C[C@H](O)[C@@]2(C)C[C@H]2O[C@]21C`, the TGI is reported as 57.7 µM.

The compounds below were run on EKVX NSCLC (assay: inhibition of tumour cell growth, NCI panel, 48 h).

`CC(=O)Nc1sc(Br)cc1S(=O)(=O)c1ccc(Cl)cc1` and `N#Cc1n[nH]n(-c2ccc(Br)cc2)c1=O` cannot be ordered by TGI: greater than 100 µM for the first, greater than 100 µM for the second.

`CC1(C)C(C#N)C1C1=C(N2CCOCC2)[C@]2(C)C(OC(=O)c3ccccc3)CC[C@@H]2C1` (stereo partly specified) and `CN(CCSCCN(C)C(=O)OC(C)(C)C)C(=O)OC(C)(C)C` cannot be ordered by TGI: greater than 100 µM for the first, greater than 100 µM for the second.

From PubChem BioAssay (NCI)
